Test results taken from ChEMBL document CHEMBL1157917, “Structure-based rational design, synthesis and antifungal activity of oxime-containing azole derivatives” (2010).
≈ marks a conversion by molar mass, not a printed value.

Assays:
Type in all cases: functional
Aspergillus fumigatus = test: Antifungal activity against Aspergillus fumigatus after 7 days by serial dilution method; details: 168 h
Trichophyton rubrum = test: Antifungal activity against Trichophyton rubrum after 7 days by serial dilution method; details: 168 h
Pichia kudriavzevii = test: Antifungal activity against Candida krusei after 24 hrs by serial dilution method
Candida albicans = test: Antifungal activity against Candida albicans after 24 hrs by serial dilution method
Candida parapsilosis = test: Antifungal activity against Candida parapsilosis after 24 hrs by serial dilution method; details: Lodderomyces parapsilosis
Candida tropicalis = test: Antifungal activity against Candida tropicalis after 24 hrs by serial dilution method
Cryptococcus neoformans = test: Antifungal activity against Cryptococcus neoformans after 72 hrs by serial dilution method

Structure (SMILES)	MIC80 (Aspergillus fumigatus)	MIC80 (Trichophyton rubrum)	MIC80 (Pichia kudriavzevii)	MIC80 (Candida albicans)	MIC80 (Candida parapsilosis)	MIC80 (Candida tropicalis)	MIC80 (Cryptococcus neoformans)
OC(CN1CCC(=NOCc2cccc(Cl)c2)CC1)(Cn1cncn1)c1ccc(F)cc1F (racemic)	1 µg/mL (≈ 2.1 µM)	0.016 µg/mL (≈ 0.0336 µM)	0.25 µg/mL (≈ 0.525 µM)	0.016 µg/mL (≈ 0.0336 µM)	0.0625 µg/mL (≈ 0.131 µM)	0.0625 µg/mL (≈ 0.131 µM)	0.001 µg/mL (≈ 0.0021 µM)
OC(CN1CCC(=NOCc2ccccc2F)CC1)(Cn1cncn1)c1ccc(F)cc1F (racemic)	1 µg/mL (≈ 2.18 µM)	0.0625 µg/mL (≈ 0.136 µM)	0.25 µg/mL (≈ 0.544 µM)	0.016 µg/mL (≈ 0.0348 µM)	0.0625 µg/mL (≈ 0.136 µM)	0.001 µg/mL (≈ 0.00218 µM)	0.004 µg/mL (≈ 0.00871 µM)
OC(CN1CCC(=NOCc2cccc3ccccc23)CC1)(Cn1cncn1)c1ccc(F)cc1F (racemic)	1 µg/mL (≈ 2.03 µM)	0.25 µg/mL (≈ 0.509 µM)	4 µg/mL (≈ 8.14 µM)	0.0625 µg/mL (≈ 0.127 µM)	0.0625 µg/mL (≈ 0.127 µM)	0.25 µg/mL (≈ 0.509 µM)	0.0625 µg/mL (≈ 0.127 µM)
ON=C1CCN(CC(O)(Cn2cncn2)c2ccc(F)cc2F)CC1 (stereo not given)	> 64 µg/mL	16 µg/mL (≈ 45.5 µM)	4 µg/mL (≈ 11.4 µM)	1 µg/mL (≈ 2.85 µM)	16 µg/mL (≈ 45.5 µM)	1 µg/mL (≈ 2.85 µM)	1 µg/mL (≈ 2.85 µM)
OC(CN1CCC(=NOCc2ccc(F)cc2)CC1)(Cn1cncn1)c1ccc(F)cc1F (racemic)	1 µg/mL (≈ 2.18 µM)	0.0625 µg/mL (≈ 0.136 µM)	0.25 µg/mL (≈ 0.544 µM)	0.016 µg/mL (≈ 0.0348 µM)	0.004 µg/mL (≈ 0.00871 µM)	0.0097 µg/mL (≈ 0.0211 µM)	0.016 µg/mL (≈ 0.0348 µM)
CCC(C)n1ncn(-c2ccc(N3CCN(c4ccc(OCC5COC(Cn6cncn6)(c6ccc(Cl)cc6Cl)O5)cc4)CC3)cc2)c1=O (stereo not given) [ITRACONAZOLE]	1 µg/mL (≈ 1.42 µM)	0.004 µg/mL (≈ 0.00567 µM)	0.25 µg/mL (≈ 0.354 µM)	0.016 µg/mL (≈ 0.0227 µM)	0.0625 µg/mL (≈ 0.0886 µM)	0.0625 µg/mL (≈ 0.0886 µM)	0.004 µg/mL (≈ 0.00567 µM)
C=Cc1ccc(CON=C2CCN(CC(O)(Cn3cncn3)c3ccc(F)cc3F)CC2)cc1 (racemic)	64 µg/mL (≈ 137 µM)	16 µg/mL (≈ 34.2 µM)	64 µg/mL (≈ 137 µM)	16 µg/mL (≈ 34.2 µM)	64 µg/mL (≈ 137 µM)	64 µg/mL (≈ 137 µM)	16 µg/mL (≈ 34.2 µM)
OC(CN1CCC(=NOCc2ccccc2)CC1)(Cn1cncn1)c1ccc(F)cc1F (racemic)	1 µg/mL (≈ 2.27 µM)	0.0625 µg/mL (≈ 0.142 µM)	0.0625 µg/mL (≈ 0.142 µM)	0.004 µg/mL (≈ 0.00906 µM)	0.004 µg/mL (≈ 0.00906 µM)	0.001 µg/mL (≈ 0.00227 µM)	0.016 µg/mL (≈ 0.0362 µM)
O=[N+]([O-])c1cccc(CON=C2CCN(CC(O)(Cn3cncn3)c3ccc(F)cc3F)CC2)c1 (racemic)	1 µg/mL (≈ 2.06 µM)	0.25 µg/mL (≈ 0.514 µM)	1 µg/mL (≈ 2.06 µM)	1 µg/mL (≈ 2.06 µM)	0.0625 µg/mL (≈ 0.128 µM)	1 µg/mL (≈ 2.06 µM)	0.0625 µg/mL (≈ 0.128 µM)
OC(CN1CCC(=NOCc2ccc(C(F)(F)F)cc2)CC1)(Cn1cncn1)c1ccc(F)cc1F (racemic)	64 µg/mL (≈ 126 µM)	16 µg/mL (≈ 31.4 µM)	64 µg/mL (≈ 126 µM)	16 µg/mL (≈ 31.4 µM)	64 µg/mL (≈ 126 µM)	64 µg/mL (≈ 126 µM)	16 µg/mL (≈ 31.4 µM)
OC(CN1CCC(=NOCc2ccc3ccccc3c2)CC1)(Cn1cncn1)c1ccc(F)cc1F (racemic)	1 µg/mL (≈ 2.03 µM)	0.0625 µg/mL (≈ 0.127 µM)	0.25 µg/mL (≈ 0.509 µM)	0.016 µg/mL (≈ 0.0326 µM)	0.016 µg/mL (≈ 0.0326 µM)	0.016 µg/mL (≈ 0.0326 µM)	0.016 µg/mL (≈ 0.0326 µM)
OC(CN1CCC(=NOCc2cccc(C(F)(F)F)c2)CC1)(Cn1cncn1)c1ccc(F)cc1F (racemic)	64 µg/mL (≈ 126 µM)	16 µg/mL (≈ 31.4 µM)	64 µg/mL (≈ 126 µM)	16 µg/mL (≈ 31.4 µM)	64 µg/mL (≈ 126 µM)	64 µg/mL (≈ 126 µM)	16 µg/mL (≈ 31.4 µM)
OC(CN1CCC(=NOCc2ccc(Br)cc2)CC1)(Cn1cncn1)c1ccc(F)cc1F (racemic)	1 µg/mL (≈ 1.92 µM)	0.016 µg/mL (≈ 0.0307 µM)	0.25 µg/mL (≈ 0.48 µM)	0.016 µg/mL (≈ 0.0307 µM)	0.016 µg/mL (≈ 0.0307 µM)	0.004 µg/mL (≈ 0.00769 µM)	0.016 µg/mL (≈ 0.0307 µM)
OC(CN1CCC(=NOCc2cccc(Br)c2)CC1)(Cn1cncn1)c1ccc(F)cc1F (racemic)	1 µg/mL (≈ 1.92 µM)	0.0625 µg/mL (≈ 0.12 µM)	0.25 µg/mL (≈ 0.48 µM)	0.016 µg/mL (≈ 0.0307 µM)	0.016 µg/mL (≈ 0.0307 µM)	0.004 µg/mL (≈ 0.00769 µM)	0.016 µg/mL (≈ 0.0307 µM)
Cc1ccc(CON=C2CCN(CC(O)(Cn3cncn3)c3ccc(F)cc3F)CC2)cc1 (racemic)	64 µg/mL (≈ 141 µM)	16 µg/mL (≈ 35.1 µM)	16 µg/mL (≈ 35.1 µM)	64 µg/mL (≈ 141 µM)	64 µg/mL (≈ 141 µM)	64 µg/mL (≈ 141 µM)	16 µg/mL (≈ 35.1 µM)
